Assays:
PKC-ε = molecular target: T1, PKC-ε (Homo sapiens, UniProt Q02156); assay: Competitive binding assay using cell extracts (Western blot); parameters: cytoplasmic extracts from different cell lines expressing appropriate PKC isoforms; endogenous in cells; host or cells: CCD16Lu, LnCAP, Du145, MDAMB231, LS180; key: —: no detectable affinity; Low to very low affinity at 10X or 20X or both PRE concentrations in at least one cell line in the cell extract assay; Low affinity in purified isoform assay.; Moderate affinity at 10X or 20X or both PRE concentrations in at least one cell line in the cell extract assay.; High affinity at 10X or 20X or both PRE concentrations in at least one cell line in the cell extract assay; High affinity in purified isoform assay; details: Cell extract; PRE at 10X, 20X antibody concentration; Table 20
T1 sequence (Q02156 1-737): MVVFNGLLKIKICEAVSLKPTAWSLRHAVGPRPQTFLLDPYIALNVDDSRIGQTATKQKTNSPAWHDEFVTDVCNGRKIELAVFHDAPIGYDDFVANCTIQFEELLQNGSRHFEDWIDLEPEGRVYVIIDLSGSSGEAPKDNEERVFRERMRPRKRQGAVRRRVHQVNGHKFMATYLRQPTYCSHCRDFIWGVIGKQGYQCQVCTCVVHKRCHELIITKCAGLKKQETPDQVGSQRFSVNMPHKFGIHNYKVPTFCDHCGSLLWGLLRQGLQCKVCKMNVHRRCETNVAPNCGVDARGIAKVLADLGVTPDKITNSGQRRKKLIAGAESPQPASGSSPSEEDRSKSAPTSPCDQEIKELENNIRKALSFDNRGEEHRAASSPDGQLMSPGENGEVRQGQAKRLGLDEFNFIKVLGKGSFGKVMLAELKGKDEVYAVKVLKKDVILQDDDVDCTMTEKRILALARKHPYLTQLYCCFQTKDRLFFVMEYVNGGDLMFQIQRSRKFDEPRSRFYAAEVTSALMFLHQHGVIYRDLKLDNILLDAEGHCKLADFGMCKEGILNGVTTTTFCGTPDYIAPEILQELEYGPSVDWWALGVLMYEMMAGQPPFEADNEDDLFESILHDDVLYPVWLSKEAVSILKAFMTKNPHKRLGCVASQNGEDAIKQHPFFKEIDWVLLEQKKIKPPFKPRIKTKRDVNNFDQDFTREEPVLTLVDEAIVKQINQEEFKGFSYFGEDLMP
Procedure: (§1) Binding efficiency and specificity of the peptides PRE 2, 3, 4, 5, 6, 7, 8, 9, 10, 11, 12 and 13 (see Table 3) was also tested using cytoplasmic extracts from different cell lines expressing appropriate PKC isoforms as described for Example 1. Briefly, the protein cytoplasmic extracts were separated by electrophoresis and transferred onto nitrocellulose membranes by standard Western blotting procedures. The bands on the Western blots were detected with matching primary antibodies and alkaline phosphatase conjugated secondary antibody. The bands were then scanned and the relative density measurements obtained.
(§2) This procedure to assess the binding characteristics of the PREs is based on competition binding of the PRE with the primary anti-isoform PKC specific antibodies. The lower the measured band density, the greater the binding of the PRE to the PKC isoform. The PREs were added at 10 and 20 times (10×, 20×) the primary antibody concentration, according to classical competition between antigenic peptide and primary antibody. The following cell lines (obtained from the ATCC) were used: H661—NCI human lung carcinoma NSCLC; MDAMB231—human highly invasive breast cancer cell line from pleural effusion; LS180—human colon adenocarcinoma; LnCAP—human prostate adenocarcinoma; CCD16Lu—human lung fibroblasts; Du145—human prostate carcinoma brain metastasis, and T24—human bladder carcinoma.
(§3) In these cases, the 20× band density figures relative to control and 10× values were reliable.

PKC-βI = PKC-βI (Homo sapiens, UniProt P05771); assay: as above; parameters: cytoplasmic extracts from different cell lines expressing appropriate PKC isoforms; endogenous in cells; host or cells: H661, MDAMB231, LS180, T24; key to Affinity for PKC isoform βI: —: no detectable affinity; Low to very low affinity at 10X or 20X or both PRE concentrations in at least one cell line in the cell extract assay; Low affinity in purified isoform assay.; Moderate affinity at 10X or 20X or both PRE concentrations in at least one cell line in the cell extract assay.; High affinity at 10X or 20X or both PRE concentrations in at least one cell line in the cell extract assay; High affinity in purified isoform assay; details: for Affinity for PKC isoform βI: Cell extract, PRE at 10X, 20X antibody concentration, Table 20
Procedure: as §1, §2, §3

[1] = In vitro toxicity test (fluorimetric DNA assay, Hoechst); format: cell-based, human; details: human, IMR-32 neuroblastoma cells, read-out: % survival; for viability at 24 h, 2500 µg/mL / viability at 48 h, 2500 µg/mL / viability at 72 h, 2500 µg/mL: 2.5 mg/ml; for viability at 24 h, 2500 µg/mL / viability at 48 h, 2500 µg/mL / viability at 72 h, 2500 µg/mL / viability at 24 h, 10000 µg/mL / viability at 48 h, 10000 µg/mL / viability at 72 h, 10000 µg/mL: with pinocytic endocytosis reagent; for viability at 24 h, 10000 µg/mL / viability at 48 h, 10000 µg/mL / viability at 72 h, 10000 µg/mL: 10 mg/ml
Procedure: (§4) In vitro cytotoxicity testing of the peptides PRE 3, PRE 4 and PRE 5 (see Table 3) was conducted following the general protocol outlined below (modified from “Fluorimetric DNA assay for cell growth estimation” Rao J, Otto W., Analytical Biochem. 207:186-192, 1992).
(§5) The assay was performed in 96 well plates, with 3,000 IMR-32 neuroblastoma cells seeded per well and 8 replicas were performed per treatment. The cells were pre-treated with either plain medium and a pinocytic endocytosis reagent (Molecular Probes) or medium containing the PRE under evaluation and the pinocytic endocytosis reagent. The cells were allowed to grow under conventional conditions for 3 days. The DNA content of each well was assessed at 24, 48 and 72 hours using Hoechst reagent according to standard procedures. The fluorescence intensity per well was measured using the plate reader “CytoFluor 2350” from Millipore. Excitation was 360 nm and emission was 460 nm. The number of cells is directly correlated to the DNA content.
(§6) The results are shown in Tables 11-13 as the average relative fluorescence intensity measured for the 8 replica wells, as well as the percentage of survival as compared with matching untreated controls.

[2] = system: IMR-32 neuroblastoma cells; assay: as above; format: cell-based, human
Procedure: as §4, §5, §6

[3] = 2.5 mg/ml, 24 h, with pinocytic endocytosis reagent
[4] = 2.5 mg/ml, 48 h, with pinocytic endocytosis reagent
[5] = 2.5 mg/ml, 72 h, with pinocytic endocytosis reagent
[6] = 10 mg/ml, 24 h, with pinocytic endocytosis reagent
[7] = 10 mg/ml, 48 h, with pinocytic endocytosis reagent
[8] = 10 mg/ml, 72 h, with pinocytic endocytosis reagent

Chain of PKC-βI (P05771 2-671): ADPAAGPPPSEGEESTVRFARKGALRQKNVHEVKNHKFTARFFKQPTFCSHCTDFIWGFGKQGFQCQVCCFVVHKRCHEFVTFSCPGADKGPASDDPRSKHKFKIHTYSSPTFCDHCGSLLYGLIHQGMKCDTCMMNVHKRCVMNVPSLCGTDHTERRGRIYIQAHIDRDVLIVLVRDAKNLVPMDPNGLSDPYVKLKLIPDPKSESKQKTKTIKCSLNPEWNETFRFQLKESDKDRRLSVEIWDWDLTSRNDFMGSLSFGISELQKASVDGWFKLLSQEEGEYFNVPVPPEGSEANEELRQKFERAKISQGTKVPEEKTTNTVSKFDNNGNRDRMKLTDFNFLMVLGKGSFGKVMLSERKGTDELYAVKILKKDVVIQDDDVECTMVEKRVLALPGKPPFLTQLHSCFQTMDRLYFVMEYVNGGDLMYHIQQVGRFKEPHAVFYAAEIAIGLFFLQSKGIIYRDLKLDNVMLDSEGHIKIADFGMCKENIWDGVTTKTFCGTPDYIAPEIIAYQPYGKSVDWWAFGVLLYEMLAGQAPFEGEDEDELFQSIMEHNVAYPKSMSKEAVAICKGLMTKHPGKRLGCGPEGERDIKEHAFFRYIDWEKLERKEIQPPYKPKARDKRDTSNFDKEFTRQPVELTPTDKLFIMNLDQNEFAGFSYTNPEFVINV

Ac-AKGIQEVKGGDAQNLIGISI-NH2 [PRE 3]
Affinity for PKC isoform ε (PKC-ε): L
Affinity for PKC isoform βI (PKC-βI): L
viability at 24 h, 2500 µg/mL ([1]; 24 h): 127%
viability at 48 h, 2500 µg/mL ([1]; 48 h): 150%
viability at 72 h, 2500 µg/mL ([1]; 72 h): 123%
viability at 24 h, 10000 µg/mL ([1]; 24 h): 120%
viability at 48 h, 10000 µg/mL ([1]; 48 h): 129%
viability at 72 h, 10000 µg/mL ([1]; 72 h): 117%
AFI (Average fluorescence intensity) [2, 3]: 193
AFI (Average fluorescence intensity) [2, 4]: 389
AFI (Average fluorescence intensity) [2, 5]: 871
AFI (Average fluorescence intensity) [2, 6]: 182
AFI (Average fluorescence intensity) [2, 7]: 334
AFI (Average fluorescence intensity) [2, 8]: 830

Ac-AKGIQEVKGGKDAQNLIGISI-NH2 [PRE 5]
Affinity for PKC isoform ε (PKC-ε): L
Affinity for PKC isoform βI (PKC-βI): H
viability at 24 h, 62.5 µg/mL ([1]; 62.5 μg/ml, 24 h, Table 13): 113%
viability at 48 h, 62.5 µg/mL ([1]; 62.5 μg/ml, 48 h, Table 13): 117%
viability at 72 h, 62.5 µg/mL ([1]; 62.5 μg/ml, 72 h, Table 13): 100%
viability at 24 h, 125 µg/mL ([1]; 125 μg/ml, 24 h, Table 13): 94%
viability at 48 h, 125 µg/mL ([1]; 125 μg/ml, 48 h, Table 13): 107%
viability at 72 h, 125 µg/mL ([1]; 125 μg/ml, 72 h, Table 13): 93%
viability at 24 h, 250 µg/mL ([1]; 250 μg/ml, 24 h, Table 13): 88%
viability at 48 h, 250 µg/mL ([1]; 250 μg/ml, 48 h, Table 13): 97%
viability at 72 h, 250 µg/mL ([1]; 250 μg/ml, 72 h, Table 13): 89%
viability at 24 h, 500 µg/mL ([1]; 500 μg/ml, 24 h, Table 13): 78%
viability at 48 h, 500 µg/mL ([1]; 500 μg/ml, 48 h, Table 13): 96%
viability at 72 h, 500 µg/mL ([1]; 500 μg/ml, 72 h, Table 13): 84%
AFI (Average fluorescence intensity) ([2]; 62.5 μg/ml, 24 h, 3000 cells/100 μl/well, Table 13): 717
AFI (Average fluorescence intensity) ([2]; 62.5 μg/ml, 48 h, Table 13): 1084
AFI (Average fluorescence intensity) ([2]; 62.5 μg/ml, 72 h, Table 13): 1290
AFI (Average fluorescence intensity) ([2]; 125 μg/ml, 24 h, Table 13): 593
AFI (Average fluorescence intensity) ([2]; 125 μg/ml, 48 h, Table 13): 991
AFI (Average fluorescence intensity) ([2]; 125 μg/ml, 72 h, Table 13): 1200
AFI (Average fluorescence intensity) ([2]; 250 μg/ml, 24 h, Table 13): 557
AFI (Average fluorescence intensity) ([2]; 250 μg/ml, 48 h, Table 13): 899
AFI (Average fluorescence intensity) ([2]; 250 μg/ml, 72 h, Table 13): 1150
AFI (Average fluorescence intensity) ([2]; 500 μg/ml, 24 h, Table 13): 492
AFI (Average fluorescence intensity) ([2]; 500 μg/ml, 48 h, Table 13): 891
AFI (Average fluorescence intensity) ([2]; 500 μg/ml, 72 h, Table 13): 1082

Ac-ISIGILNQADK-NH2 [PRE 10]
Affinity for PKC isoform ε (PKC-ε): M/L
Affinity for PKC isoform βI (PKC-βI): M

Ac-ISIGILQNADK-NH2 [PRE 7]
Affinity for PKC isoform ε (PKC-ε): —
Affinity for PKC isoform βI (PKC-βI): —

Ac-KDANQLIGISI-NH2 [PRE 6]
Affinity for PKC isoform ε (PKC-ε): M
Affinity for PKC isoform βI (PKC-βI): H

Ac-KDAQNLI-NH2 [PRE 12]
Affinity for PKC isoform ε (PKC-ε): —
Affinity for PKC isoform βI (PKC-βI): —

Ac-KDAQNLIGISI-NH2 [PRE 4, Ac-KDAQNLIGISI-NH2]
Affinity for PKC isoform ε (PKC-ε): H/L
Affinity for PKC isoform βI (PKC-βI): H
affinity for PKC-βI (PKC-βI; cell extracts): good affinity for PKC-βI
viability at 24 h, 2500 µg/mL ([1]; 24 h): 106%
viability at 48 h, 2500 µg/mL ([1]; 48 h): 99%
viability at 72 h, 2500 µg/mL ([1]; 72 h): 110%
viability at 24 h, 10000 µg/mL ([1]; 24 h): 103%
viability at 48 h, 10000 µg/mL ([1]; 48 h): 101%
viability at 72 h, 10000 µg/mL ([1]; 72 h): 115%
AFI (Average fluorescence intensity) [2, 3]: 179
AFI (Average fluorescence intensity) [2, 4]: 240
AFI (Average fluorescence intensity) [2, 5]: 777
AFI (Average fluorescence intensity) [2, 6]: 173
AFI (Average fluorescence intensity) [2, 7]: 247
AFI (Average fluorescence intensity) [2, 8]: 809

Ac-RDAQNLI-NH2 [PRE 13]
Affinity for PKC isoform ε (PKC-ε): —
Affinity for PKC isoform βI (PKC-βI): —

Ac-RDAQNLIGISI-NH2 [PRE 11]
Affinity for PKC isoform ε (PKC-ε): —
Affinity for PKC isoform βI (PKC-βI): H

Ac-isigilgnadk-NH2 [PRE 9]
Affinity for PKC isoform ε (PKC-ε): M/L
Affinity for PKC isoform βI (PKC-βI): M

ILEDKGGDAQNLIGISI [PRE 8]
Affinity for PKC isoform ε (PKC-ε): L

RRKKGGKDFVVKR [PRE 1]
Affinity for PKC isoform βI (PKC-βI): H
